Target: T1, CXCR7 (Homo sapiens, UniProt P25106)
T1 construct: host or cells: CHO-K1 (PathHunter CHO-K1 CXCR7 b-arrestin cell line, stably transfected)
Assay: PathHunter CHO-K1 CXCR7 b-arrestin recruitment assay (CXCR7 agonistic activity)
Type: cell-based
Settings: PathHunter CHO-K1 CXCR7 b-arrestin cell line
Procedure, shortened: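 Stable CHO-K1 line with C-terminally ProLink-tagged CXCR7 and β-arrestin 2–EA fusion; β-arrestin recruitment restores β-gal activity, read by chemiluminescence after 1 h RT detection. Cells seeded 24 h, starved in OPTIMEM 3–4 h, exposed to compounds 90 min at 37 °C in HBSS/HEPES/BSA. Geometric-mean EC50 from repeated measurements.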

T1 sequence (P25106 whole entry): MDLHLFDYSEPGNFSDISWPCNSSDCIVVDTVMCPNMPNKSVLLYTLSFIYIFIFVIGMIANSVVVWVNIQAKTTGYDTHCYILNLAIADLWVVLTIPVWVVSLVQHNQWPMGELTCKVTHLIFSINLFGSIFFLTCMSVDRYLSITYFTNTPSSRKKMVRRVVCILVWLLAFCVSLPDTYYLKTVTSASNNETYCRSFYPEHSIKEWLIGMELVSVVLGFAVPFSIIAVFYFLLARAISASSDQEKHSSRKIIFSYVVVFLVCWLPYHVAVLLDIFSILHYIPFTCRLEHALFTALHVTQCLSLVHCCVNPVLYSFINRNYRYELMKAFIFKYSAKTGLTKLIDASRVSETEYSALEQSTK
T1 sequence (P32121 whole entry partner): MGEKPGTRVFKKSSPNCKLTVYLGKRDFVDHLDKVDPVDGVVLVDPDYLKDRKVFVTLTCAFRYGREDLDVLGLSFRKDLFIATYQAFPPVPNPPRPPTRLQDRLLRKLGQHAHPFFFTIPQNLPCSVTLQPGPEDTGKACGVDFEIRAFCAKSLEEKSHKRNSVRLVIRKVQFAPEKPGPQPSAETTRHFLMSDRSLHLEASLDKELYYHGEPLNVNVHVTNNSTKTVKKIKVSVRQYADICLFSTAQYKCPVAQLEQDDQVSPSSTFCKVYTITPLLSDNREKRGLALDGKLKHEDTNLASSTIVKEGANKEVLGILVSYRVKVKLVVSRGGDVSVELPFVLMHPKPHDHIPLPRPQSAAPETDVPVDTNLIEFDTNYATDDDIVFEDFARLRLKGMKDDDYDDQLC

Compound | EC50 [nM]
CN(C)CCN(Cc1nccs1)C(=O)CNc1cccc2c1CCN(CC1CC1)C2 [Example 265, 2-(2-Cyclopropylmethyl-1,2,3,4-tetrahydro-isoquinolin-5-ylamino)-N-(2-dimethylamino-ethyl)-N-thiazol-2-ylmethyl-acetamide] | 48
Cc1csc(CN(CCN(C)C)C(=O)CNc2cccc3c2CCN(CC2CC2)C3)n1 [Example 266, 2-(2-Cyclopropylmethyl-1,2,3,4-tetrahydro-isoquinolin-5-ylamino)-N-(2-dimethylamino-ethyl)-N-(4-methyl-thiazol-2-ylmethyl)-acetamide] | 16
CN(C)CCN(Cc1ccc(F)cn1)C(=O)CNc1cccc2c1CCN(CC1CC1)C2 [Example 267, 2-(2-Cyclopropylmethyl-1,2,3,4-tetrahydro-isoquinolin-5-ylamino)-N-(2-dimethylamino-ethyl)-N-(5-fluoro-pyridin-2-ylmethyl)-acetamide] | 33
CN(C)CCN(Cc1ccncc1)C(=O)CNc1cccc2c1CCN(CC1CC1)C2 [Example 268, 2-(2-Cyclopropylmethyl-1,2,3,4-tetrahydro-isoquinolin-5-ylamino)-N-(2-dimethylamino-ethyl)-N-pyridin-4-ylmethyl-acetamide] | 350
Cc1cc(CN(CCN(C)C)C(=O)CNc2cccc3c2CCN(CC2CC2)C3)no1 [Example 269, 2-(2-Cyclopropylmethyl-1,2,3,4-tetrahydro-isoquinolin-5-ylamino)-N-(2-dimethylamino-ethyl)-N-(5-methyl-isoxazol-3-ylmethyl)-acetamide] | 54
CN(C)CCN(Cc1c(F)cccc1F)C(=O)CNc1cccc2c1CCN(CC1CC1)C2 [Example 270, 2-(2-Cyclopropylmethyl-1,2,3,4-tetrahydro-isoquinolin-5-ylamino)-N-(2,6-difluoro-benzyl)-N-(2-dimethylamino-ethyl)-acetamide] | 7
CN(C)CCN(Cc1ncccc1F)C(=O)CNc1cccc2c1CCN(CC1CC1)C2 [Example 271, 2-(2-Cyclopropylmethyl-1,2,3,4-tetrahydro-isoquinolin-5-ylamino)-N-(2-dimethylamino-ethyl)-N-(3-fluoro-pyridin-2-ylmethyl)-acetamide] | 10
CN(C)CCN(Cc1cnc(N(C)C)nc1)C(=O)CNc1cccc2c1CCN(CC1CC1)C2 [Example 272, 2-(2-Cyclopropylmethyl-1,2,3,4-tetrahydro-isoquinolin-5-ylamino)-N-(2-dimethylamino-ethyl)-N-(2-dimethylamino-pyrimidin-5-ylmethyl)-acetamide] | 230
CC(C)(C)CCN(Cc1ncccc1C(F)(F)F)C(=O)CNc1cccc2c1CCN(CC1CC1)C2 [Example 275, 2-(2-Cyclopropylmethyl-1,2,3,4-tetrahydro-isoquinolin-5-ylamino)-N-(3,3-dimethyl-butyl)-N-(3-trifluoromethyl-pyridin-2-ylmethyl)-acetamide] | 43
Cc1cccnc1CN(CCC(C)(C)C)C(=O)CNc1cccc2c1CCN(CC1CC1)C2 [Example 276, 2-(2-Cyclopropylmethyl-1,2,3,4-tetrahydro-isoquinolin-5-ylamino)-N-(3,3-dimethyl-butyl)-N-(3-methyl-pyridin-2-ylmethyl)-acetamide] | 17
CN(CCN(Cc1ncccc1C(F)(F)F)C(=O)CNc1cccc2c1CCN(CC1CC1)C2)CC(F)(F)F [Example 280, 2-(2-Cyclopropylmethyl-1,2,3,4-tetrahydro-isoquinolin-5-ylamino)-N-{2-[methyl-(2,2,2-trifluoro-ethyl)-amino]-ethyl}-N-(3-trifluoromethyl-pyridin-2-ylmethyl)-acetamide] | 28
CN(C)CCN(Cc1ccc(Nc2ccc(F)cc2)cn1)C(=O)CNc1cccc2c1CCN(CC1CC1)C2 [Example 285, 2-(2-Cyclopropylmethyl-1,2,3,4-tetrahydro-isoquinolin-5-ylamino)-N-(2-dimethylamino-ethyl)-N-[5-(4-fluoro-phenylamino)-pyridin-2-ylmethyl]-acetamide] | 408
CN(C)CCN(Cc1ccccc1C(F)(F)F)C(=O)CNc1cccc2c1CCN(CCF)C2 [Example 286, N-(2-Dimethylamino-ethyl)-2-[2-(2-fluoro-ethyl)-1,2,3,4-tetrahydro-isoquinolin-5-ylamino]-N-(2-trifluoromethyl-benzyl)-acetamide] | 37
CN(C)CCN(Cc1ccccc1C(F)(F)F)C(=O)CNc1ccc(Cl)c2c1CCN(CC1CC1)C2 [Example 287, 2-(8-Chloro-2-cyclopropylmethyl-1,2,3,4-tetrahydro-isoquinolin-5-ylamino)-N-(2-dimethylamino-ethyl)-N-(2-trifluoromethyl-benzyl)-acetamide] | 150
CN(C)CCN(Cc1ccccc1C(F)(F)F)C(=O)CNc1ccc(F)c2c1CCN(CC1CC1)C2 [Example 288, 2-(2-Cyclopropylmethyl-8-fluoro-1,2,3,4-tetrahydro-isoquinolin-5-ylamino)-N-(2-dimethylamino-ethyl)-N-(2-trifluoromethyl-benzyl)-acetamide] | 23
CN(C)CCN(Cc1ncccc1C(F)(F)F)C(=O)CNc1ccc(F)c2c1CCN(CC1CC1)C2 [Example 289, 2-(2-Cyclopropylmethyl-8-fluoro-1,2,3,4-tetrahydro-isoquinolin-5-ylamino)-N-(2-dimethylamino-ethyl)-N-(3-trifluoromethyl-pyridin-2-ylmethyl)-acetamide] | 16
Cc1ccc2c(c1NCC(=O)N(CCN(C)C)Cc1ccccc1C(F)(F)F)CCN(CC1CC1)C2 [Example 290, 2-(2-Cyclopropylmethyl-6-methyl-1,2,3,4-tetrahydro-isoquinolin-5-ylamino)-N-(2-dimethylamino-ethyl)-N-(2-trifluoromethyl-benzyl)-acetamide] | 5
C[C@H](Nc1cccc2c1CCN(CC1CC1)C2)C(=O)N(CCN(C)C)Cc1ccccc1C(F)(F)F [Example 291, (S)-2-(2-Cyclopropylmethyl-1,2,3,4-tetrahydro-isoquinolin-5-ylamino)-N-(2-dimethylamino-ethyl)-N-(2-trifluoromethyl-benzyl)-propionamide] | 92
CN(C)CCN(Cc1ccccc1C(F)(F)F)C(=O)C1(Nc2cccc3c2CCN(CC2CC2)C3)CC1 [Example 292, 1-(2-Cyclopropylmethyl-1,2,3,4-tetrahydro-isoquinolin-5-ylamino)-cyclopropanecarboxylic acid (2-dimethylamino-ethyl)-(2-trifluoromethyl-benzyl)-amide] | 103

The remaining lines, values ahead:

EC50 [nM] | Compound
144 | CC(C)(C)OC(=O)NCCN(Cc1ccccc1C(F)(F)F)C(=O)CNc1cccc2c1CCN(CC1CC1)C2 [Example 273, {2-[[2-(2-Cyclopropylmethyl-1,2,3,4-tetrahydro-isoquinolin-5-ylamino)-acetyl]-(2-trifluoromethyl-benzyl)-amino]-ethyl}-carbamic acid tert-butyl ester]
179 | CC(C)(C)CCN(Cc1ccccc1C(F)(F)F)C(=O)CNc1cccc2c1CCN(CC1CC1)C2 [Example 274, 2-(2-Cyclopropylmethyl-1,2,3,4-tetrahydro-isoquinolin-5-ylamino)-N-(3,3-dimethyl-butyl)-N-(2-trifluoromethyl-benzyl)-acetamide]
28 | O=C(CNc1cccc2c1CCN(CC1CC1)C2)N(CCN1CCC(F)(F)CC1)Cc1ccccc1C(F)(F)F [Example 277, 2-(2-Cyclopropylmethyl-1,2,3,4-tetrahydro-isoquinolin-5-ylamino)-N-[2-(4,4-difluoro-piperidin-1-yl)-ethyl]-N-(2-trifluoromethyl-benzyl)-acetamide]
79 | CN(CCN(Cc1ccccc1C(F)(F)F)C(=O)CNc1cccc2c1CCN(CC1CC1)C2)CC(F)(F)F [Example 278, 2-(2-Cyclopropylmethyl-1,2,3,4-tetrahydro-isoquinolin-5-ylamino)-N-{2-[methyl-(2,2,2-trifluoro-ethyl)-amino]-ethyl}-N-(2-trifluoromethyl-benzyl)-acetamide]
8 | O=C(CNc1cccc2c1CCN(CC1CC1)C2)N(CCN1CCC(F)(F)CC1)Cc1ncccc1C(F)(F)F [Example 279, 2-(2-Cyclopropylmethyl-1,2,3,4-tetrahydro-isoquinolin-5-ylamino)-N-[2-(4,4-difluoro-piperidin-1-yl)-ethyl]-N-(3-trifluoromethyl-pyridin-2-ylmethyl)-acetamide]
43 | O=C(CNc1cccc2c1CCN(CC1CC1)C2)N(CCN1CCCC(F)(F)C1)Cc1ccccc1C(F)(F)F [Example 281, 2-(2-Cyclopropylmethyl-1,2,3,4-tetrahydro-isoquinolin-5-ylamino)-N-[2-(3,3-difluoro-piperidin-1-yl)-ethyl]-N-(2-trifluoromethyl-benzyl)-acetamide]
47 | O=C(CNc1cccc2c1CCN(CC1CC1)C2)N(CCN1CCC(F)(F)C1)Cc1ccccc1C(F)(F)F [Example 282, 2-(2-Cyclopropylmethyl-1,2,3,4-tetrahydro-isoquinolin-5-ylamino)-N-[2-(3,3-difluoro-pyrrolidin-1-yl)-ethyl]-N-(2-trifluoromethyl-benzyl)-acetamide]
11 | O=C(CNc1cccc2c1CCN(CC1CC1)C2)N(CCN1CCCC(F)(F)C1)Cc1ncccc1C(F)(F)F [Example 283, 2-(2-Cyclopropylmethyl-1,2,3,4-tetrahydro-isoquinolin-5-ylamino)-N-[2-(3,3-difluoro-piperidin-1-yl)-ethyl]-N-(3-trifluoromethyl-pyridin-2-ylmethyl)-acetamide]
18 | O=C(CNc1cccc2c1CCN(CC1CC1)C2)N(CCN1CCC(F)(F)C1)Cc1ncccc1C(F)(F)F [Example 284, 2-(2-Cyclopropylmethyl-1,2,3,4-tetrahydro-isoquinolin-5-ylamino)-N-[2-(3,3-difluoro-pyrrolidin-1-yl)-ethyl]-N-(3-trifluoromethyl-pyridin-2-ylmethyl)-acetamide]

From patent US9920010B2, “CXCR7 receptor modulators” (IDORSIA PHARMACEUTICALS LTD, priority 2013, dated 2018)
